Legend:
[1] = Metabolite identification of Compound 18 incubated with human plasma; assay type: in vitro ADME; design: key to Detection at 0 min / Detection at 30 min / Detection at 60 min / Detection at 90 min: +: Detected; ND: Not detected; conditions: Compound 18 (10 μM), human plasma
Experimental: Metabolite Identification: Compound 18 (10 μM) was incubated with human plasma (29.0 mg protein/incubation) in incubation mixtures (200 μL final incubation volume) that consisted of 50/50 v/v neat plasma (undiluted)/substrate solution in 50 mM phosphate buffer, pH 7.4). The plasma was obtained from male and female donors and contained K2EDTA anticoagulant. Reactions were started by addition of the substrate solution to human plasma and were stopped at four designated time points (0, 30, 60 and 90 min) by the addition of 600 μL of stop reagent (acetonitrile). Stopped incubation samples were centrifuged (e.g., 10,000×g for 10 min at 10° C.) and the supernatant fractions were analyzed by LC-MS/MS to characterize the metabolites formed from compound 18. Additional incubations were performed with the positive control procaine […] to establish competency of the test system. Samples were analyzed by LC-MS/MS.
(§1) In vitro metabolite identification studies using compound 18 were also performed. […] The disappearance of parent compound 18 and the primary metabolite, compound 166, from mouse liver tissue was measured after dosing 0.25 mg/kg mRNA on days 1, 8, and 15.

mouse liver tissue = test: Disappearance of parent lipid and primary metabolite from mouse liver after 0.25 mg/kg mRNA on days 1, 8 and 15; assay type: in vivo
Experimental: as §1

human hepatocytes = test: Metabolite profiling of Compound 18 incubated with human hepatocytes; assay type: in vitro ADME; design: key: +: Detected; ND: Not detected; conditions: Compound 18 (10 μM), human hepatocytes
Experimental: as §1
The results of metabolic profiling and characterization for compound 18 incubated with human hepatocytes or human plasma are summarized in Tables 41 and 42, respectively.

hEPO mRNA = test: Pretreatment study (methotrexate or dexamethasone) with MC3 formulation in Cynomolgus monkeys; assay type: in vivo; conditions: MC3 formulation with hEPO mRNA, once weekly for four weeks
Description: In order to combat negative effects, nanoparticle compositions are co-administered with one or more substances (e.g., co-medications or additional therapeutic and/or prophylactics) to subjects. Potentially useful additional therapeutic and/or prophylactics include steroids (e.g., corticosteroids), anti-histamines, H1 receptor blockers, H2 receptor blockers, anti-inflammatory compounds, statins, BTK inhibitors, S1P1 agonists, glucocorticoid receptor modulators (GRMs), and estradiols. Non-human primates are pretreated with one or more additional therapeutic agents selected from dexamethasone and acetaminophen. The additional therapeutic agent is administered either 24 hours, 1 hour, or both 24 hours and 1 hour before administration of a nanoparticle composition. Cytokine profiles, inflammation, and other parameters are measured and compared to evaluate the effectiveness of pretreatment
The effects of pretreatment to non-human primates were evaluated using a standard MC3 formulation including an mRNA encoding hEPO. Male monkeys were administered the nanoparticle composition once weekly for four weeks at a dose rate of 5 ml/kg/h and were pretreated with either methotrexate or dexamethasone.
As shown, in the absence of any pretreatment, maximal expression levels decreased nearly 70% over the course of the study.

Row | Structure (SMILES) | Detection at 30 min ([1]; 30 min) | Detection at 60 min ([1]; 60 min) | Detection at 90 min ([1]; 90 min) | clearance from mouse liver tissue (mouse liver tissue) | Detection at 60 min (human hepatocytes; 60 min) | Detection at 120 min (human hepatocytes; 120 min) | Detection at 240 min (human hepatocytes; 240 min) | Effect of pretreatment on protein expression (hEPO mRNA)
1 | CCCCCCCCC(CCCCCCCC)OC(=O)CCCCCCCN(CCO)CCCCCCCC(=O)O [Compound 166, 8-((8-(Heptadecan-9-yloxy)-8-oxooctyl)(2-hydroxyethyl)amino)octanoic acid] | + | + | + | rapid clearance | + | + | + | 
2 | CN(Cc1cnc2nc(N)nc(N)c2n1)c1ccc(C(=O)N[C@@H](CCC(=O)O)C(=O)O)cc1 [Methotrexate, methotrexate] |  |  |  |  |  |  |  | did not confer any particular beneficial effect
